64 compounds from a melting point compilation (Tetko et al.; mined from patent text by program, amines drawn as free bases though some values may be those of a salt) can be followed below.

The structures appear in SMILES notation.

Compound `CC1CC(=O)c2c(OS(=O)(=O)c3cccs3)ccc(-c3nccs3)c2C1` (centres undefined) came in with a melting point of 111 to 113 °C. As for `CCCCc1oc2ccccc2c1C=NOCCCOc1ccc(C(=O)O)cc1-c1ccc(C(F)(F)F)cc1`, the figure is 140 °C; as for `COC(=O)C=Cc1ccc(C(=O)Nc2ccncc2)cc1`, 209 to 211 °C; as for `CCOC(=O)c1cn(C2CC2)c2oc(CN3CCOCC3)cc2c1=O`, 196 to 198 °C. Consider `Clc1ccc(COC(CNc2ccc(Cl)c(Cl)c2)Cn2ccnc2)c(Cl)c1` (centres undefined), for which the melting point was 116 to 117 °C. Take `C1CCCCN2CCOCCOCCN(CCC1)CCOCCOCC2`: the melting point was in the range of 90 to 91 °C. As for `NC(=O)NC(=S)Nc1ccccc1`, the melting point fell in the range of 176 to 180 °C. As for `OCCCC#CC#Cc1ccccc1`, the figure is 50.9 to 51.6 °C.

Take `N#CN=CNCc1cc(Cl)nc(Cl)c1`: the melting point amounted to 160 °C. In turn, `CCCC(=O)N1CCc2nnc(NN=C(C)C)cc2C1` showed a melting point of 152 to 154 °C. The value for `CCCCc1ncc(/C=C(\Cc2cccs2)C(=O)O)n1Cc1ccc(O)c(C)c1` was 150 to 152 °C; that for `CO/C(=C\C=C\c1cc2ccccc2[nH]1)C(=O)NCc1ccccc1` was 204 to 205 °C.

As to `O=C(O)c1ccccc1N1C(=O)c2ccc([N+](=O)[O-])cc2C1=O`, the melting point fell in the range of 242 to 243 °C. In turn, `CCOC(=O)NC(CCc1ccccc1)P(=O)(CC(=O)O)OCc1ccccc1` (centres undefined) displayed a melting point of 151 to 153 °C. Compound `O=C(NN1CCCCC1)c1ccc(N2CCN(C(=O)N3CCC(c4cn[nH]c4)C3)c3ccccc32)cc1` (centres undefined) gave a melting point of 251 °C. As for `OC1c2ccccc2OC12CCCCCC2` (centres undefined), the figure is 104 to 107 °C. Take `CN(C(=O)c1ccc(N)cc1)c1ccccc1N`: the melting point fell in the range of 159 to 160 °C. The value for `Nc1nc(C2CCN(C(=O)Cc3ccc(O)c(O)c3)CC2)c2ccccc2n1` was 250 to 253 °C.

The compound `O=C(Nc1cccc(Cl)c1)N[C@H]1C[C@H](C(=O)O)Nc2cc(Cl)cc(Cl)c21` (relative stereo) came in with a melting point of 173 to 175 °C. As for `CCOC(=O)C(=Cc1ccccc1)S(N)(=O)=O`, the figure is 88 to 89 °C; as for `CCC(CC)C(NS(=O)(=O)c1ccc(Cl)c(Cl)c1)c1ccnn1-c1ccccc1` (centres undefined), 56 to 66 °C.

Compound `COc1ccc(NC(=O)Oc2ccc3c(c2)N(Cc2ccccc2)CCC3)cc1` displayed a melting point of 170 °C. `C=Cn1cccc(O)c1=S` displayed a melting point of 84 °C. The value for `COC(=O)CN(C)C(=O)c1ccc(OC)c2cc(OC)ccc12` was 105 to 107 °C; that for `COc1ccc(C(O)C(F)(F)C(=O)SC(C)(C)C)cc1` (centres undefined) was 73 to 75 °C. As for `COc1cc2c(-c3ccnc(NN)c3)c(CO)c(CO)cc2cc1OC1CCCC1`, the figure is 127 to 130 °C; as for `CNC(=O)NC1=NC(=CCC(=O)Nc2ccc(Cl)cc2)CS1`, 203 to 205 °C; as for `CCN(C(=O)C(F)(F)F)c1cc(C)nc(Oc2c(C)cc(C)cc2C)c1C`, 110 to 111 °C. As for `Cc1ccc2nc(-c3ccc(-c4ccccc4)cc3)nc(C(=O)O)c2c1`, the figure is 193 to 196 °C. Consider `Nc1ncc(CN2CC=C(c3ccccc3)CC2)c(N)n1`, for which the melting point is 239 to 241 °C.

As to `COCc1ncccc1CN(CCn1ccc2occc2c1=O)Cc1ccc2c(c1)NC(=O)C(C)(C)C(=O)N2CC(C)C`, the melting point was in the range of 149 to 151 °C. Regarding `C=C(c1ccc(N(C(=O)c2c(I)cccc2C(N)=O)C(C)C)c(C)c1)C(F)(F)F`, the melting point is 201 to 203 °C. `NC(=O)N1CCc2cc(S(N)(=O)=O)sc2C1` returned a melting point of 205 to 208 °C.

Consider `COc1ccc(OC)c2c1C=C(C(=O)O)CC2`, for which the melting point was < 220 °C. As for `CCCCc1ncc(C=C2C(=O)NC(=O)N2Cc2ccc(Cl)cc2)n1Cc1ccc(C(=O)O)cc1`, the figure is 225 to 227 °C.

As to `COC(=O)c1ccc2c(c1)NC(=O)c1cccnc1N2`, the melting point was in the range of 344 to 349 °C.

`CCc1nc(-c2ccccc2Cl)nn1C`: the melting point is 44 °C. As for `CC(C)N(Cc1ccccc1)c1ncnc2nc[nH]c12`, the figure is 200 to 202 °C; as for `COC(=O)c1cnn(C)c1Cl`, 69 to 70 °C; as for `CC(NC(=O)N(C)O)c1ccc(OCc2ccccc2)cc1` (centres undefined), 105 to 106 °C. The value for `CNC(=S)NCCn1c(=O)ccc2c(C)cc(C)nc21` was 216 to 218 °C. `NC(=O)Cc1ccc(OCCN(CC(=O)c2ccc(OCc3ccccc3)c(OCc3ccccc3)c2)Cc2ccccc2)cc1`: the melting point was 99 to 101 °C.

`CC(C)CNC(=O)CN=Cc1ccccc1F` showed a melting point of 154 °C. The value for `CS(=O)(=O)OC1=C(C(=O)O)N2C(=O)[C@@H](NC(=O)Cc3ccccc3)[C@H]2CN1` (racemic) was 115 to 117 °C; that for `CCOC(=O)c1c(-c2ccccc2)c2cc(Cl)ccc2[nH]c1=O` was 223 to 224 °C; that for `CONS(=O)(=O)c1c(C)nn(C)c1Cl` was 120 to 122 °C. In turn, `CCOC(=O)N1CCc2nc3cc(C)ccc3c(C)c2CC1` registered a melting point of 121 °C. The value for `COC(=O)NNc1cc(C)c(-c2ccc(C#N)cc2)nn1` was 191 to 192 °C; that for `COC(=O)c1cccc(Cn2c(=O)c(=O)[nH]c3cc([N+](=O)[O-])ccc32)c1` was 265 to 267 °C; that for `CCOC(=O)C(c1ccc(Nc2nc(-c3cccc(NC(=O)c4ccc(C(C)(C)C)cc4)c3C)cn(C)c2=O)cc1)N(C)C(C)C` (centres undefined) was 119 to 120 °C.

For the compound `COc1cc(C2C3=C(COC3=O)Nc3ccc4ncsc4c32)cc(OC)c1OC` (centres undefined), the melting point is 309 to 310 °C. For the compound `Cc1nc(-c2ccccc2)nc2sc3c(N4CCNCC4)nc(Cl)nc3c12`, the melting point is > 310 °C.

In the case of `COc1c(C)cc(N2CCN(c3ccc(-n4c(C)n[nH]c4=O)cc3)CC2)cc1C`, the melting point was found to be 280 °C. Regarding `CC(C)(C)OC(=O)N1CC(Oc2ccc(N)nc2)C1`, the melting point lay within 83 to 84 °C. As for `CC[C@H](C1CC1)n1cc(Cl)nc(N2CCc3cc(OC)cc(Cl)c32)c1=O`, the figure is 118 to 120 °C; as for `O=Cc1ccc2c(n1)COC(c1ccccc1)O2` (centres undefined), 110 to 114 °C; as for `N#Cc1oc2c(sc3ccccc32)c1O`, 174 to 175 °C. Compound `O=C(CC(=O)c1ccc(C(=O)CC(=O)c2ccccc2)cc1)c1ccccc1` displayed a melting point of 175 to 177 °C. As to `O=S1(=O)NCN(C2CC2)c2cc(Br)cc(Br)c21`, the melting point lay within 203 to 205 °C.

Compound `COc1ccc(CC(=O)NC(NC(=NC#N)Nc2cccnc2OC)C(C)(C)C)cc1OC` (centres undefined) registered a melting point of 146 to 147 °C. As for `Cc1cc(-c2nc[nH]n2)ccc1-c1cnc2[nH]c(=O)n(CCC3CCOCC3)c2n1`, the figure is 258 to 260 °C; as for `CCN(CC)CC1(C(F)(F)F)c2cc(Cl)ccc2Nc2ncccc21` (centres undefined), 115 to 117 °C; as for `COc1ccc(-c2cc3ccccc3[nH]2)cc1NC(=S)Nc1ccc(C(=O)O)cc1`, 201 to 203 °C. The compound `O=c1[nH]ccc2ncccc12` had a melting point of 156 to 159 °C.
